Values quoted from earlier work, collected in patent publication US20060210492A1 (priority 2005, published 2006).

CO[C@H]1/C=C/O[C@@]2(C)Oc3c(C)c(O)c4c(O)c(c5c(nc6cc(C)ccn65)c4c3C2=O)NC(=O)/C(C)=C\C=C\[C@H](C)[C@H](O)[C@@H](C)[C@@H](O)[C@@H](C)[C@H](OC(C)=O)[C@@H]1C [rifaximin, (2S,16Z,18E,20S,21S,22R,23R,24R,25S,26S,27S,28E)-5,6,21,23,25-pentahydroxy-27-methoxy-2,4,11,16,20,22,24,26-octamethyl-2,7-(epoxypentadeca-[1,11,13]trienimino)benzofuro[4,5-e]pyrido[1,2-a]-benzimidazole-1,15(2H)-dione,25-acetate]
solubility in water: practically insoluble
